Values of other authors as cited in patent US8211035B2, “System and method for monitoring health using exhaled breath” (University of Florida Research Foundation, Inc., priority 2002, dated 2012).

CC(C)c1cccc(C(C)C)c1O [propofol, 2,6-diisopropylphenol]
dose recovered in urine as hydroxylated and conjugated metabolites: 88%
